# Laboratory results taken from patent publication US9139569B2, “Fused tricyclic aryl compounds useful for the treatment of viral diseases” (Merck Sharp & Dohme Corp., priority 2009, dated 2015).
# Columns and labels:
# [1] = tested on: HCV replicon genotype 1b; test: Cell-based HCV replicon assay, genotype 1b; settings: Hepatitis C virus, 72 h, HCV replicon cells, replicon RNA by real time PCR on day 3, read-out: EC50 (nM) (gt1b)
# Experimental: (§1) To measure cell-based anti-HCV activity of selected compounds of the present invention, replicon cells were seeded at 5000 cells/well in 96-well collagen I-coated Nunc plates in the presence of the test compound. Various concentrations of test compound, typically in 10 serial 2-fold dilutions, were added to the assay mixture, with the starting concentration ranging from 250 μM to 1 μM. The final concentration of DMSO was 0.5%, fetal bovine serum was 5%, in the assay media. Cells were harvested on day 3 by the addition of 1× cell lysis buffer (Ambion cat #8721). The replicon RNA level was measured using real time PCR (Taqman assay). The amplicon was located in 5B. The PCR primers were: 5B.2F, ATGGACAGGCGCCCTGA (SEQ. ID NO. 1); 5B.2R, […] (SEQ. ID NO. 2); the probe sequence was FAM-labeled CACGCCATGCGCTGCGG (SEQ. ID NO. 3). GAPDH RNA was used as endogenous control and was amplified in the same reaction as NS5B (multiplex PCR) using primers and VIC-labeled probe recommended by the manufacturer (PE Applied Biosystem). The real-time RT-PCR reactions were run on ABI PRISM 7900HT Sequence Detection System using the following program: 48° C. for 30 min, 95° C. for 10 min, 40 cycles of 95° C. for 15 sec, 60° C. for 1 min. The ACT values (CT5B-CTGAPDH) were plotted against the concentration of test compound and fitted to the sigmoid dose-response model using XLfit4 (MDL). EC50 was defined as the concentration of inhibitor necessary to achieve ΔCT=1 over the projected baseline; EC90 the concentration necessary to achieve ΔCT=3.2 over the baseline. Alternatively, to quantitate the absolute amount of replicon RNA, a standard curve was established by including serially diluted T7 transcripts of replicon RNA in the Taqman assay. All Taqman reagents were from PE Applied Biosystems. Such an assay procedure was described in detail in e.g. Malcolm et al., Antimicrobial Agents and Chemotherapy 50: 1013-1020 (2006).
# (§2) HCV replicon assay data was calculated for genotypes 1a, 1b, 2a and 3a for selected compounds of the present invention using this method and is provided in the table below.
# [2] = tested on: HCV replicon genotype 1a; test: Cell-based HCV replicon assay, genotype 1a; settings: Hepatitis C virus, 72 h, HCV replicon cells, replicon RNA by real time PCR on day 3, read-out: EC50 (nM) (gt1a)
# Experimental: as §1, §2
# [3] = tested on: HCV replicon genotype 2a; test: Cell-based HCV replicon assay, genotype 2a; settings: Hepatitis C virus, 72 h, HCV replicon cells, replicon RNA by real time PCR on day 3, read-out: EC50 (nM) (gt2a)
# Experimental: as §1, §2
# [4] = tested on: HCV replicon genotype 3a; test: Cell-based HCV replicon assay, genotype 3a; settings: Hepatitis C virus, 72 h, HCV replicon cells, replicon RNA by real time PCR on day 3, read-out: EC50 (nM) (gt3a)
# Experimental: To measure cell-based anti-HCV activity of selected compounds of the present invention, replicon cells were seeded at 5000 cells/well in 96-well collagen I-coated Nunc plates in the presence of the test compound. Various concentrations of test compound, typically in 10 serial 2-fold dilutions, were added to the assay mixture, with the starting concentration ranging from 250 μM to 1 μM. The final concentration of DMSO was 0.5%, fetal bovine serum was 5%, in the assay media. Cells were harvested on day 3 by the addition of 1× cell lysis buffer (Ambion cat #8721). The replicon RNA level was measured using real time PCR (Taqman assay). The amplicon was located in 5B. The PCR primers were: 5B.2F, ATGGACAGGCGCCCTGA (SEQ. ID NO. 1); 5B.2R, […] (SEQ. ID NO. 2); the probe sequence was FAM-labeled CACGCCATGCGCTGCGG (SEQ. ID NO. 3). GAPDH RNA was used as endogenous control and was amplified in the same reaction as NS5B (multiplex PCR) using primers and VIC-labeled probe recommended by the manufacturer (PE Applied Biosystem). […] Alternatively, to quantitate the absolute amount of replicon RNA, a standard curve was established by including serially diluted T7 transcripts of replicon RNA in the Taqman assay. […]
# as §2
SMILES,EC50 [1] [nM],EC50 [2] [nM],EC50 [3] [nM],EC50 [4] [nM]
COC(=O)N[C@H](C(=O)N1CCC[C@H]1c1ncc(-c2cc3cc4oc(-c5cnc([C@@H]6CCCN6C(=O)[C@@H](NC(=O)OC)C(C)C)[nH]5)cc4cc3o2)[nH]1)C(C)C [Compound 39],0.001,0.02,0.05,–
COC(=O)N[C@H](C(=O)N1CCC[C@H]1c1ncc(-c2ccc3cc4cc(-c5cnc([C@@H]6CCCN6C(=O)[C@@H](NC(=O)OC)C(C)C)[nH]5)ccc4cc3c2)[nH]1)C(C)C [Compound 36],–,0.001,0.039,0.01
COC(=O)N[C@H](C(=O)N1CCC[C@H]1c1ncc(-c2ccc3nc4cc(-c5cnc([C@@H]6CCCN6C(=O)[C@@H](NC(=O)OC)C(C)C)[nH]5)ccc4cc3c2)[nH]1)C(C)C [Compound 37],0.001,0.047,0.71,0.04
COC(=O)N[C@H](C(=O)N1CCC[C@H]1c1ncc(-c2ccc3nc4cc(-c5cnc([C@@H]6CCCN6C(=O)[C@@H](NC(=O)OC)C(C)C)[nH]5)ccc4nc3c2)[nH]1)C(C)C [Compound 38],0.015,0.035,–,–
